The values below come from US9079905B2, “Compounds for the treatment of CNS disorders” (Boehringer Ingelheim International GmbH, priority 2008, dated 2015).

In general, inhibition refers to the drop in the measured response relative to a control, in per cent. The term IC50 denotes the concentration that gives 50% inhibition.

In the experiment the target is T1, human PDE9A2 (Homo sapiens, UniProt O76083).
T1 construct: made in house; host or cells: Sf9 insect cells (infected; crude lysate used as enzyme source)
The experiment can be described thus: PDE9A2 enzymatic activity assay (scintillation proximity assay). Particulars: for IC50: specific IC50 value is within the given range. Type of experiment: biochemical. As to the method:
The PDE9A2 enzymatic activity assay was run as scintillation proximity assay (SPA), in general according to the protocol of the manufacturer (Amersham Biosciences, product number: TRKQ 7100).
As enzyme source, lysate (PBS with 1% Triton X-100 supplemented with protease inhibitors, cell debris removed by centrifugation at 13.000 rpm for 30 min) of SF 9 cell expressing the human PDE9A2 was used. The total protein amount included in the assay varied upon infection and production efficacy of the SF9 cells and lay in the range of 0.1-100 ng.
In general, the assay conditions were as follows: • total assay volume: 40 microliter • protein amount: 0.1-50 ng • substrate concentration (cGMP): 20 nanomolar; ˜1 mCi/1 • incubation time: 60 min at room temperature • final DMSO concentration: 0.2-1
The assays were run in 384-well format. The test reagents as well as the enzyme and the substrate were diluted in assay buffer. The assay buffer contained 50 mM Tris, 8.3 mM MgCl2, 1.7 mM EGTA, 0.1% BSA, 0.05% Tween 20; the pH of assay buffer was adjusted to 7.5. The reaction was stopped by applying a PDE9 specific inhibitor (e.g. compounds according to WO04099210 or WO04099211) in excess.
The activity of the positive control (minus the negative control=background) is set to 100% and activity in the presence of test compound is expressed relative to these 100%. Within this setting, an inhibition above 100% might be possible due to the nature of the variation of the positive control within the assay. In the following inhibition of PDE 9A2 is presented for a concentration at 10 μM, if not indicated otherwise.
IC50 can be calculated with GraphPadPrism or other suited software setting the positive control as 100 and the negative control as 0. For calculation of IC50 dilutions of the test compounds (substrates) are to be selected and tested following the aforementioned protocol.
On the technique in general: Scintillation proximity formats need no separation of bound from free tracer.

The mark [1] stands for this setting: read-out: % Inhibition of PDE 9A2.

T1 sequence (O76083 1-533 isoform O76083-2): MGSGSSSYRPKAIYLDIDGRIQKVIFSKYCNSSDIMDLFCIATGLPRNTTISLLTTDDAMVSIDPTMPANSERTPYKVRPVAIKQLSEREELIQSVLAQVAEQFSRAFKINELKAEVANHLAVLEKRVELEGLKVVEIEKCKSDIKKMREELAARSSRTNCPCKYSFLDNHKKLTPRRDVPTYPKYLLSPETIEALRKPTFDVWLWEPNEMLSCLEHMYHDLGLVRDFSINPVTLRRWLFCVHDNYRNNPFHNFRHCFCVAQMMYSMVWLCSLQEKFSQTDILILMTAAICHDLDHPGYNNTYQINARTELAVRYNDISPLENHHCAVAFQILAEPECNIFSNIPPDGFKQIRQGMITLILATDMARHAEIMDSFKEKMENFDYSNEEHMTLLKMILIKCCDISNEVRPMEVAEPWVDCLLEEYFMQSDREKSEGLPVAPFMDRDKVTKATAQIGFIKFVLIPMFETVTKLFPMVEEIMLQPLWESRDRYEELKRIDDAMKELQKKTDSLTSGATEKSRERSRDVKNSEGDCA

`O=c1[nH]c(Cc2ccccc2-c2cncnc2)nc2c1cnn2C1CCC(F)(F)CC1` [Example 76] yielded an IC50 of 1 to 100 nM. For the same compound, the inhibition at 10 µM under setting [1] is 99%. The matching figures for `CC(=O)NC1CCCC(n2ncc3c(=O)[nH]c(CC4CCCC4)nc32)C1` (racemic) [Example 50]: 101 to 1500 nM and 95%. As for `COc1ccc(Cc2nc3c(cnn3C3CCC(F)(F)CC3)c(=O)[nH]2)cc1` [Example 26], the half-inhibitory concentration (IC50) lay within 1 to 100 nM. The inhibition at 10 µM under setting [1] was determined as 100%. Compound `O=c1[nH]c(Cc2ccccc2-n2cccn2)nc2c1cnn2C1CCC(F)(F)CC1` [Example 95] yielded an IC50 of 1 to 100 nM. Besides, the inhibition at 10 µM under setting [1] was found to be 97%. The matching figures for `O=c1[nH]c(C(F)c2ccccc2-n2cccn2)nc2c1cnn2C1CCC(F)(F)CC1` (single isomer, unassigned) [Example 92]: 101 to 1500 nM and 93%.

Turning to `O=c1[nH]c(Cc2ccccc2-n2cnnc2)nc2c1cnn2C1CCC(F)(F)CC1` [Example 108], the half-maximal inhibitory concentration (IC50) was in the range of 1 to 100 nM. Besides, the inhibition at 10 µM under setting [1] was found to be 99%. As for `CC1(C)CC(Cc2nc3c(cnn3C3CCC(F)(F)CC3)c(=O)[nH]2)C(=O)O1` (racemic) [Example 28], the IC50 fell in the range of 101 to 1500 nM. Also, the inhibition at 10 µM under setting [1] amounted to 91%.

`O=C(O)Cc1ccccc1Cc1nc2c(cnn2C2CCC(F)(F)CC2)c(=O)[nH]1` [Example 38]: the IC50 lay in the range of 101 to 1500 nM. The inhibition at 10 µM under setting [1] turned out to be 85%. In turn, `COc1ccc(-c2ccc(F)cc2Cc2nc3c(cnn3C3CCC(F)(F)CC3)c(=O)[nH]2)cn1` [Example 65] showed an IC50 of 1 to 100 nM. The inhibition at 10 µM under setting [1] came to 101%.

`O=C(Cc1ccccc1Cc1nc2c(cnn2C2CCC(F)(F)CC2)c(=O)[nH]1)N1CCOCC1` [Example 82] showed a half-maximal inhibitory concentration (IC50) of 101 to 1500 nM. Besides, the inhibition at 10 µM under setting [1] is 91%. In the same order, the values of `Cn1cc(-c2ccc(F)cc2Cc2nc3c(cnn3C3CCC(F)(F)CC3)c(=O)[nH]2)cn1` [Example 72-3] are 1 to 100 nM and 98%. For `Cc1cccnc1Cc1nc2c(cnn2C2CCC(F)CC2)c(=O)[nH]1` (stereo not shown) [Example 110], the inhibition at 10 µM under setting [1] is 95%. In turn, `COc1cccc(Cl)c1Cc1nc2c(cnn2C2CCC(F)(F)CC2)c(=O)[nH]1` [Example 37] had an IC50 of 1 to 100 nM. Moreover, under setting [1], the inhibition at 10 µM is 97%.

The compound `O=c1[nH]c(CC2CCC2)nc2c1cnn2C1CCC(F)CC1` (stereo not shown) [Example 111] displayed an IC50 of 1 to 100 nM. Further, under setting [1], the inhibition at 10 µM turned out to be 74%.

`CCC(Cc1nc2c(cnn2C2CCC(F)(F)CC2)c(=O)[nH]1)C(F)(F)F` (single isomer, unassigned) [Example 101] registered a concentration for half-maximal inhibition (IC50) of 1 to 100 nM. In addition, the inhibition at 10 µM under setting [1] turned out to be 100%. The matching figures for `CC1(C)CC(Cc2nc3c(cnn3C3CCC(F)(F)CC3)c(=O)[nH]2)CO1` (single isomer, unassigned) [Example 77]: 1 to 100 nM and 100%. Consider `CCC(Cc1nc2c(cnn2C2CCC(F)(F)CC2)c(=O)[nH]1)C(F)(F)F` (racemic) [Example 27], for which the 50% inhibitory concentration (IC50) was in the range of 1 to 100 nM. Besides, the inhibition at 10 µM under setting [1] amounted to 104%. The matching figures for `O=c1[nH]c(Cc2ccccc2Br)nc2c1cnn2C1CCC(F)(F)CC1` [Example 33]: 1 to 100 nM and 98%.

`O=c1[nH]c(Cc2ccccn2)nc2c1cnn2C1CCC(F)CC1` (stereo not shown) [Example 109]: under setting [1], the inhibition at 10 µM came out at 93%. On to `N#Cc1ccc(-c2cc(F)ccc2Cc2nc3c(cnn3C3CCC(F)(F)CC3)c(=O)[nH]2)cn1` [Example 63], for which the IC50 lay within 101 to 1500 nM. The inhibition at 10 µM under setting [1] stood at 93%. With `CCC(CC)Cc1nc2c(cnn2C2CCC(F)(F)CC2)c(=O)[nH]1` [Example 21], the IC50 lay in the range of 1 to 100 nM. Further, under setting [1], the inhibition at 10 µM was 103%. In the same order, the values of `COc1ccc(F)cc1Cc1nc2c(cnn2C2CCC(F)(F)CC2)c(=O)[nH]1` [Example 48-4] are 1 to 100 nM and 99%. In the same order, the values of `O=c1[nH]c(Cc2ccccc2-c2ccnc(F)c2)nc2c1cnn2C1CCC(F)(F)CC1` [Example 74] are 1 to 100 nM and 98%. The matching figures for `COC(=O)Cc1ccccc1Cc1nc2c(cnn2C2CCC(F)(F)CC2)c(=O)[nH]1` [Example 84]: 101 to 1500 nM and 81%. For `Cc1ncn(-c2ccccc2Cc2nc3c(cnn3C3CCC(F)(F)CC3)c(=O)[nH]2)n1` [Example 95-1], the IC50 lay within 1 to 100 nM. In addition, the inhibition at 10 µM under setting [1] is 111%. As for `O=c1[nH]c(Cc2ccccc2C2CC2)nc2c1cnn2C1CCC(F)(F)CC1` [Example 103], the IC50 was in the range of 1 to 100 nM. For the same compound, the inhibition at 3.3 µM (at 3.3 μM, read-out: % Inhibition of PDE 9A2) was found to be 96%. `Cn1nccc1-c1ccc(F)cc1Cc1nc2c(cnn2C2CCC(F)(F)CC2)c(=O)[nH]1` [Example 72-2]: the IC50 is 1 to 100 nM. The inhibition at 10 µM under setting [1] was determined as 98%.

In turn, `O=c1[nH]c(CC2CCOC2)nc2c1cnn2C1CCC(F)(F)CC1` (stereo not shown) [Example 23] had an IC50 of 101 to 1500 nM. Moreover, the inhibition at 10 µM under setting [1] was determined as 100%.

In the case of `O=c1[nH]c(Cc2ccccc2CCO)nc2c1cnn2C1CCC(F)(F)CC1` [Example 83], the IC50 was in the range of 101 to 1500 nM. Further, the inhibition at 10 µM under setting [1] turned out to be 88%. The matching figures for `CCCCc1nc2c(cnn2C2CCC(F)(F)CC2)c(=O)[nH]1` [Example 8]: 1 to 100 nM and 98%. In the same order, the values of `CC(=O)NC1CCCC(n2ncc3c(=O)[nH]c(Cc4ccccc4OC(F)(F)F)nc32)C1` (mixture of isomers) [Example 49] are 1 to 100 nM and 99%. In the same order, the values of `O=C(NC1CCCC(n2ncc3c(=O)[nH]c(CC4CCCC4)nc32)C1)c1ccccc1` (racemic) [Example 51] are 101 to 1500 nM and 98%. As to `O=c1[nH]c(Cc2cc(F)ccc2Br)nc2c1cnn2C1CCC(F)(F)CC1` [Example 45], the 50% inhibitory concentration (IC50) was 1 to 100 nM. Also, the inhibition at 10 µM under setting [1] came to 97%. In the same order, the values of `NC(=O)c1ccc(-c2ccc(F)cc2Cc2nc3c(cnn3C3CCC(F)(F)CC3)c(=O)[nH]2)cn1` [Example 61] are 1 to 100 nM and 99%. In the same order, the values of `CC(C)(C)OC(=O)NC1CCCC(n2ncc3c(=O)[nH]c(Cc4ccccc4OC(F)(F)F)nc32)C1` (mixture of isomers) [Example 18] are 1 to 100 nM and 100%. The compound `Cc1ccc(-c2ccccc2Cc2nc3c(cnn3C3CCC(F)(F)CC3)c(=O)[nH]2)cn1` [Example 73] came in with an IC50 of 1 to 100 nM. Moreover, the inhibition at 10 µM under setting [1] stood at 98%. The matching figures for `O=c1[nH]c(CC2CCCC2)nc2c1cnn2C1CCCC1O` (mixture of isomers) [Example 10]: 1 to 100 nM and 102%. In the same order, the values of `Cc1ccc(-c2ccccc2Cc2nc3c(cnn3C3CCC(F)(F)CC3)c(=O)[nH]2)o1` [Example 93] are 1 to 100 nM and 94%. The matching figures for `O=c1[nH]c(Cc2cc(F)ccc2-c2cncc(F)c2)nc2c1cnn2C1CCC(F)(F)CC1` [Example 72-9]: 1 to 100 nM and 100%.

In turn, `O=c1[nH]c(Cc2cccc(C(F)(F)F)c2)nc2c1cnn2C1CCC(F)(F)CC1` [Example 6] showed an IC50 of 1 to 100 nM. Also, under setting [1], the inhibition at 10 µM was found to be 98%. The matching figures for `CC(C)Cc1nc2c(cnn2C2CCC(F)(F)CC2)c(=O)[nH]1` [Example 9]: 1 to 100 nM and 97%. The matching figures for `O=c1[nH]c(Cc2cc(F)ccc2-n2cccn2)nc2c1cnn2C1CCC(F)(F)CC1` [Example 89]: 1 to 100 nM and 98%. In the same order, the values of `O=c1[nH]c(Cc2cc(F)cc(F)c2)nc2c1cnn2C1CCC(F)(F)CC1` [Example 7] are 1 to 100 nM and 96%. Turning to `COc1ccccc1Cc1nc2c(cnn2C2CCC(F)(F)CC2)c(=O)[nH]1` [Example 48-3], the half-maximal inhibitory concentration (IC50) lay within 1 to 100 nM. The inhibition at 10 µM under setting [1] came to 95%. The matching figures for `O=c1[nH]c(Cc2ccccc2OC(F)(F)F)nc2c1cnn2C1CCC(F)(F)CC1` [Example 3]: 1 to 100 nM and 94%. The matching figures for `N#Cc1ccc(-c2ccccc2Cc2nc3c(cnn3C3CCC(F)(F)CC3)c(=O)[nH]2)cn1` [Example 54]: 1 to 100 nM and 102%. In the same order, the values of `CC(C)Cc1nc2c(cnn2C2CCC(F)CC2)c(=O)[nH]1` (stereo not shown) [Example 112] are 1 to 100 nM and 97%. `CCOC(=O)NC1CCCC(n2ncc3c(=O)[nH]c(CC4CCCC4)nc32)C1` (mixture of isomers) [Example 17] gave an IC50 of 1 to 100 nM. Moreover, under setting [1], the inhibition at 10 µM was found to be 103%.
